Patent US20220280614A1 (CASE WESTERN RESERVE UNIVERSITY, priority 2019, published 2022)

Test system: male Sprague-Dawley rats (ca. 300 g) rendered diabetic by streptozotocin
Experiment: Biological activity and pharmacodynamics (blood glucose over time) after subcutaneous injection in diabetic rats
Type: in vivo, rat
Conditions: premixed clear solution of SCI-A and SCI-B, unbuffered, pH 4.0, FIGS. 8-10
Protocol: FIG. 7 is a graph showing blood glucose levels over time for diabetic rats (time 0 blood glucose of 375±20 mg/dl) injected subcutaneously with indicated analogue/300 g body weight.
FIG. 8 is a graph showing blood glucose levels over time for diabetic rats (time 0 blood glucose of 350-400 [±20 mg/dl]) injected subcutaneously with 1 unit of the indicated analog/300 g body weight. ( ? ) diluent control; (●) an SCI-A (SEQ ID NO: 5); (●) an example of an SCI-B (SEQ ID NO: 6) as formulated at neutral pH; and (♦) equimolar premixed clear solution of this SCI-A and this specific SCI-B as formulated in soluble form in an unbuffered solution at pH 4.0. Respective doses: 20 μg of each protein per 300 gram rat (singly); 20 μg and 20 μg in the case of the premixed solution to a total [SCI-A+SCI-B] combined dose of 40 μg.
FIG. 9 is a graph showing blood glucose levels over time for diabetic rats (time 0 blood glucose of 400±20 mg/dl) injected subcutaneously with indicated analogue/300 g body weight. […] Respective doses: 0.75 units SCI-A, 0.25 units SCI-B; and premixture of 0.75 units SCI-A and 0.25 units SCI-B.
FIG. 10 is a graph showing blood glucose levels over time for diabetic rats (time 0 blood glucose of 385±20 mg/dl) injected subcutaneously with indicated analogue/300 g body weight. […] Respective doses: 0.75 units SCI-A, 0.25 units SCI-B; and premixture of 0.75 units SCI-A and 0.25 units SCI-B.
Biological activity and pharmacodynamics were tested in male Sprague-Dawley rats (ca. 300 g) rendered diabetic by streptozotocin (FIG. 7).
Each of the three SCI-B analogues contained a six-residue C domain and an A-domain substitution known in the art to enhance stability and receptor-binding affinity (HisA8). The first SCI-B (SEQ ID NO: 6; FIG. 8) contained C domain sequence EEGPRR (positions 31-36). This analogue also contained insulin-moiety substitutions GluA14 and GluB29. The second example of an SCI-B (SEQ ID NO: 7; FIG. 9) contained C domain sequence EAAAAA (positions 31-36) and insulin-moiety substitutions GluA14, AspB28 and ProB29. […]

Substance | effect of premixed SCI-A (SEQ ID NO: 5) on the rapid initial phase of insulin action of the SCI-B component
SEQ ID NO: 7: single-chain insulin analogue SCI-B, C domain EAAAAA, substitutions GluA14, AspB28 and ProB29 (FVNQHLCGSHLVEALYLVCGERGFFYTDPTEAAAAAGIVEQCCTSICSLEQLENYCN) | did not blunt or prevent the premixed SCI-B component from directing a rapid initial phase of insulin action
SEQ ID NO: 8: single-chain insulin analogue SCI-B, C domain EAAARA, substitutions GluA14, AspB28 and ProB29 (FVNQHLCGSHLVEALYLVCGERGFFYTDPTEAAARAGIVEQCCTSICSLEQLENYCN) | did not blunt or prevent the premixed SCI-B component from directing a rapid initial phase of insulin action
SEQ ID NO: 6: single-chain insulin analogue SCI-B, C domain EEGPRR, substitutions GluA14 and GluB29; rapid-acting component (FVNQHLCGSHLVEALYLVCGERGFFYTPETEEGPRRGIVEQCCTSICSLEQLENYCN) | did not blunt or prevent the premixed SCI-B component from directing a rapid initial phase of insulin action
